Test systems include SK-MEL-28 melanoma; U251 CNS; HCC-2998 colon; OVCAR-4 ovarian; NCI-H23 lung; T-47D breast; PC-3 prostate; MDA-MB-435; MOLT-4 leukemia; SF-539 CNS.
What all share (test): DTP human tumour cell line panel, 48 h

As a reminder, the GI50 is the concentration at which growth is held to half of that of the control. What is called TGI is the concentration giving total growth inhibition.

SMILES strings stand for the structures.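 A five-concentration, 48-hour dose response in 96-well plates underlies each endpoint, interpolated linearly between surrounding concentrations. GI50 marks 50% less growth. At the TGI there is no net growth.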

On to `Cc1ccc2ncnc(N(C)C3CCCCC3)c2c1`, for which the GI50 is 40 µM in the test on SK-MEL-28 melanoma; 59.7 µM with U251 CNS; 28.8 µM with HCC-2998 colon; 76.5 µM with OVCAR-4 ovarian; 26.5 µM in the test with NCI-H23 lung; 76.9 µM in the test on T-47D breast. The GI50 is 27.1 µM with PC-3 prostate, 23 µM in the test with MDA-MB-435 and 14.4 µM with MOLT-4 leukemia. Besides, the TGI in the test with SK-MEL-28 melanoma was greater than 100 µM; with U251 CNS, greater than 100 µM; in the test with HCC-2998 colon, 70.2 µM; in the test with OVCAR-4 ovarian, greater than 100 µM; in the test with NCI-H23 lung, 74.4 µM; in the test on T-47D breast, greater than 100 µM. The TGI with PC-3 prostate came to 87.4 µM; in the test with MDA-MB-435, 68.2 µM; with MOLT-4 leukemia, 63.6 µM.

Regarding `CCOC(=O)C#Cc1cccc(C#CC(=O)OCC)c1`, the TGI in the test with SK-MEL-28 melanoma was 9.99 µM; with U251 CNS, 9.87 µM; in the test with SF-539 CNS, 9.65 µM; in the test with HCC-2998 colon, 2.1 µM; in the test with OVCAR-4 ovarian it was 7.59 µM; with NCI-H23 lung, 10.6 µM. In addition, the results for the total growth inhibition concentration (TGI) in the test with T-47D breast, in the test on PC-3 prostate and in the test with MDA-MB-435 were 98.4 µM, 14.9 µM and 9.52 µM, respectively.

For the compound `Cc1ccc(NC(=S)NNC(=S)Nc2ccc(C)cc2)cc1`, the GI50 in the test on SK-MEL-28 melanoma was 8.39 µM; with U251 CNS, 5.16 µM; with SF-539 CNS, 5.46 µM; with HCC-2998 colon it was 15.5 µM; in the test with OVCAR-4 ovarian, greater than 100 µM; in the test with NCI-H23 lung, 5.98 µM. In addition, the GI50 in the test on T-47D breast is 14.4 µM; in the test with PC-3 prostate, 10.2 µM; with MDA-MB-435 it was 2.5 µM. The TGI with SK-MEL-28 melanoma, in the test on U251 CNS, in the test on SF-539 CNS, with HCC-2998 colon, in the test on OVCAR-4 ovarian and in the test with NCI-H23 lung was greater than 100 µM each time. The TGI in the test with T-47D breast, in the test on PC-3 prostate and in the test with MDA-MB-435 was greater than 100 µM each time.

As for `Clc1nc(Cl)c2ncn(-c3ccccc3)c2n1`, the GI50 in the test on SK-MEL-28 melanoma was 4.69 µM; in the test with U251 CNS, 1.8 µM; with SF-539 CNS it was 10.6 µM; in the test on OVCAR-4 ovarian, 10.5 µM; with NCI-H23 lung, 2.14 µM; with T-47D breast, 2.95 µM. Also, the GI50 with PC-3 prostate is 5.29 µM; with MDA-MB-435, 3.32 µM; in the test with MOLT-4 leukemia it was 7.95 µM. Moreover, the total growth inhibition concentration (TGI) in the test with SK-MEL-28 melanoma was 17.3 µM; with U251 CNS it was 3.73 µM; with SF-539 CNS, 27.3 µM; with OVCAR-4 ovarian, 24.5 µM; with NCI-H23 lung, 4.84 µM; in the test on T-47D breast it was 8.63 µM. Also, the results for the total growth inhibition concentration (TGI) in the test with PC-3 prostate, with MDA-MB-435 and in the test with MOLT-4 leukemia were 20.1 µM, 13.2 µM and 52.3 µM, respectively.

With `CCCCCOC(=O)Nc1nc(=O)n(C2OC(C)C(O)C2O)cc1F` (stereo not given), the GI50 with SK-MEL-28 melanoma was greater than 10000 µM; in the test on U251 CNS it was greater than 10000 µM; in the test with SF-539 CNS, greater than 10000 µM; in the test on HCC-2998 colon it was 271 µM; in the test on OVCAR-4 ovarian, greater than 10000 µM; in the test with T-47D breast, greater than 10000 µM. In addition, the GI50 with PC-3 prostate, in the test on MDA-MB-435 and with MOLT-4 leukemia was greater than 10000 µM throughout. Further, the TGI in the test on SK-MEL-28 melanoma, in the test on U251 CNS, in the test with SF-539 CNS, in the test on HCC-2998 colon, in the test with OVCAR-4 ovarian and in the test with T-47D breast was greater than 10000 µM throughout. In addition, the TGI in the test with PC-3 prostate, with MDA-MB-435 and with MOLT-4 leukemia was greater than 10000 µM throughout.

`Nc1nc(N)c2cc(S(=O)(=O)c3ccc4ccccc4c3)ccc2n1`: the concentration for total growth inhibition (TGI) in the test on SK-MEL-28 melanoma was greater than 100 µM; with U251 CNS, 23.6 µM; in the test with SF-539 CNS, greater than 74.7 µM; in the test with HCC-2998 colon, greater than 100 µM; in the test on NCI-H23 lung it was greater than 100 µM; with T-47D breast, greater than 29.6 µM. Further, the concentration for total growth inhibition (TGI) with PC-3 prostate, with MDA-MB-435 and in the test with MOLT-4 leukemia was greater than 100 µM each time. In addition, the GI50 in the test on MOLT-4 leukemia was greater than 100 µM.

Take `CCOC(=O)c1c(C)n([O-])c2cc(F)c(F)cc2[n+]1=O`: the GI50 in the test with SK-MEL-28 melanoma was 1.24 µM; in the test on U251 CNS, 1.51 µM; with SF-539 CNS, 3.91 µM; in the test on OVCAR-4 ovarian it was 1.72 µM; in the test on NCI-H23 lung, 1.88 µM; in the test with T-47D breast it was 1.87 µM. The GI50 was 1.65 µM in the test on PC-3 prostate, 1.56 µM with MDA-MB-435 and 0.541 µM in the test with MOLT-4 leukemia. The TGI with SK-MEL-28 melanoma turned out to be 2.58 µM; with U251 CNS, 3.04 µM; in the test with SF-539 CNS, 8.84 µM; with OVCAR-4 ovarian, 3.92 µM; with NCI-H23 lung, 3.78 µM; in the test with T-47D breast it was 3.69 µM. Further, the figures for the concentration for total growth inhibition (TGI) in the test with PC-3 prostate, in the test on MDA-MB-435 and in the test with MOLT-4 leukemia were 3.59 µM, 3.11 µM and 6.62 µM, respectively.

With `COC(=O)C1c2cc3c(c(O)c2CCC1(C)O)C(=O)c1c(O)cc2c(c1C3=O)OC1OC2(C)C(O)C(N(C)C)C1O` (stereo not given), the concentration for total growth inhibition (TGI) in the test on SK-MEL-28 melanoma was 15.7 µM; with U251 CNS, 1.71 µM; in the test on SF-539 CNS it was 3.88 µM; with OVCAR-4 ovarian it was 1.45 µM; with NCI-H23 lung, 1.99 µM; with T-47D breast, 1.61 µM. Besides, the TGI amounted to 1.79 µM with PC-3 prostate, 2.17 µM in the test on MDA-MB-435 and 0.357 µM with MOLT-4 leukemia.

`CCOC(=O)C1=C(C)NC2SC(=O)/C(=C\c3cccc(Cl)c3)N2C1c1ccccc1` (stereo not given): the GI50 was greater than 100 µM in the test on SK-MEL-28 melanoma; greater than 100 µM with U251 CNS; greater than 100 µM in the test with SF-539 CNS; greater than 100 µM in the test on HCC-2998 colon; 84.3 µM with OVCAR-4 ovarian; greater than 100 µM with NCI-H23 lung. Besides, the GI50 with T-47D breast, in the test with PC-3 prostate and in the test on MDA-MB-435 was greater than 100 µM throughout. Besides, the TGI with SK-MEL-28 melanoma, in the test on U251 CNS, in the test with SF-539 CNS, with HCC-2998 colon, with OVCAR-4 ovarian and in the test on NCI-H23 lung was greater than 100 µM each time. In addition, the TGI in the test with T-47D breast, with PC-3 prostate and in the test with MDA-MB-435 was greater than 100 µM throughout.

For `O=C(CCN1CCCCC1)c1csc2ccccc12`, the TGI in the test with SK-MEL-28 melanoma, with U251 CNS, in the test on SF-539 CNS, in the test on OVCAR-4 ovarian, in the test on NCI-H23 lung and with T-47D breast was greater than 100 µM throughout. For the same compound, the TGI in the test with PC-3 prostate, in the test on MDA-MB-435 and in the test with MOLT-4 leukemia was greater than 100 µM in each case.

Source of the values: PubChem BioAssay (NCI).
